Data from US10526352B2, “Tricyclic benzoxaborole compounds and uses thereof” (GlaxoSmithKline Intellectual Property (No.2) Limited, priority 2013, dated 2020).
Like-named read-outs stand apart in the source and are kept apart here.

Tests used:
[1] = tested on: M. tuberculosis standard strain Mtb H37Rv; assay: MIC determination against mycobacteria (resazurin, Middlebrook 7H9); assay type: cell-based, Mycobacterium tuberculosis
E. coli K12 = assay: General antimicrobial activity assay (CLSI broth microdilution); assay type: cell-based, Escherichia coli
Experimental: (§1) Whole-cell antimicrobial activity was determined by broth microdilution using the Clinical and Laboratory Standards Institute (CLSI) recommended procedure, Document M7-A7, “Methods for Dilution Susceptibility Tests for Bacteria that Grow Aerobically”.

E. coli K12 tolC::Tn10 = assay: as above; assay type: cell-based, Escherichia coli
Experimental: as §1

[2] = tested on: M. tuberculosis clinical isolates; assay: MIC against clinical strains (BACTEC MGIT 960 System); assay type: cell-based; settings: Mycobacterium tuberculosis
A. baumannii ATCC 17978 = assay: General antimicrobial activity assay (CLSI broth microdilution); assay type: cell-based, Acinetobacter baumannii
Experimental: as §1

P. aeruginosa PA01 = assay: as above; assay type: cell-based, Pseudomonas aeruginosa
Experimental: as §1

Mtb LeuRS = Mtb LeuRS (Mycobacterium tuberculosis, UniProt P9WFV1); assay: biochemical; parameters: species or system M. tuberculosis
Human cyto LeuRS = Human cyto LeuRS (Homo sapiens, UniProt Q9P2J5); assay: LeuRS aminoacylation assay, IC50 determination; assay type: biochemical
[3] = Mycobacterium tuberculosis, H37RV, read-out: Mtb H37Rv MIC (B)
[4] = hydrochloride; read-out: Mtb H37Rv MIC (B)
[5] = HepG2 Tox50 (A) / Mtb H37Rv MIC (B)
[6] = read-out: measured MIC (breakdown), for 1 strain (EXAMPLE 2 and EXAMPLE 4), highest MIC
[7] = read-out: measured MIC (breakdown), for 40 strains (EXAMPLE 2 and EXAMPLE 4)
[8] = strain 137, sensitive clinical isolate
[9] = strain 169, sensitive clinical isolate
[10] = strain 192, sensitive clinical isolate
[11] = strain 199, sensitive clinical isolate
[12] = strain 206, sensitive clinical isolate
[13] = strain 207, sensitive clinical isolate
[14] = strain 208, sensitive clinical isolate
[15] = strain 223, sensitive clinical isolate
[16] = strain 231, sensitive clinical isolate
[17] = strain 237, sensitive clinical isolate
[18] = strain 247, sensitive clinical isolate
[19] = strain 248, sensitive clinical isolate
[20] = strain 249, sensitive clinical isolate
[21] = strain 255, sensitive clinical isolate
[22] = strain 261, sensitive clinical isolate
[23] = strain 265, sensitive clinical isolate
[24] = strain 269, sensitive clinical isolate
[25] = strain 281, sensitive clinical isolate
[26] = strain 292, sensitive clinical isolate
[27] = strain 314, sensitive clinical isolate
[28] = strain 316, sensitive clinical isolate
[29] = strain 317, sensitive clinical isolate
[30] = strain 322, sensitive clinical isolate
[31] = strain 323, sensitive clinical isolate
[32] = strain 324, sensitive clinical isolate
[33] = strain 326, sensitive clinical isolate
[34] = strain 327, sensitive clinical isolate
[35] = strain 328, sensitive clinical isolate
[36] = strain 329, sensitive clinical isolate
[37] = strain 332, sensitive clinical isolate
[38] = strain 333, sensitive clinical isolate
[39] = strain 358, sensitive clinical isolate
[40] = Mycobacterium tuberculosis, H37RV; read-out: Mtb H37Rv MIC (B)

Chain of Mtb LeuRS (P9WFV1 whole entry): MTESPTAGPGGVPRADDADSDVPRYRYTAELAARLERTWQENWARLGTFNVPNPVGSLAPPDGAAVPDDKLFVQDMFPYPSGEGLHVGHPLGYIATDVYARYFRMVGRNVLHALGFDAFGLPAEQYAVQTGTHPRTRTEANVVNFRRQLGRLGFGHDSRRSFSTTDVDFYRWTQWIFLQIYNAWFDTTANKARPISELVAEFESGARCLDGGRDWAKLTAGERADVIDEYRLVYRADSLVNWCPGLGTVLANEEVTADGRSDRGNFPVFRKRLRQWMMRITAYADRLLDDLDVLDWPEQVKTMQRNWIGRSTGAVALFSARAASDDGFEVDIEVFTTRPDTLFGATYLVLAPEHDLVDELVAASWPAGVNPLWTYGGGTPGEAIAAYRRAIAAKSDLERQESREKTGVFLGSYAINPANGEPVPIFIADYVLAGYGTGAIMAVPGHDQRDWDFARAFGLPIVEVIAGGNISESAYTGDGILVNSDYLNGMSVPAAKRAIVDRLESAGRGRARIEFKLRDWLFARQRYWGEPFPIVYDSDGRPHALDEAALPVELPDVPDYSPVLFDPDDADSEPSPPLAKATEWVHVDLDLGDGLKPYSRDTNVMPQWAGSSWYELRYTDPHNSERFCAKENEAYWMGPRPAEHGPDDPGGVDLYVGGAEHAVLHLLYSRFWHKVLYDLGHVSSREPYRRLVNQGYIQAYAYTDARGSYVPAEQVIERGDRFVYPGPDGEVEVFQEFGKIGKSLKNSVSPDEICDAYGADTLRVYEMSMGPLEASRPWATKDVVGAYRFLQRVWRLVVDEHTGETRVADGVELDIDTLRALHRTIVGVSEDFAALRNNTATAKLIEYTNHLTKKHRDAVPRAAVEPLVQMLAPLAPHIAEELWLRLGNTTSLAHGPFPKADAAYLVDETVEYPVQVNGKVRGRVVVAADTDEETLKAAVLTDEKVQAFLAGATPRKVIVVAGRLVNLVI
Chain of Human cyto LeuRS (Q9P2J5 whole entry): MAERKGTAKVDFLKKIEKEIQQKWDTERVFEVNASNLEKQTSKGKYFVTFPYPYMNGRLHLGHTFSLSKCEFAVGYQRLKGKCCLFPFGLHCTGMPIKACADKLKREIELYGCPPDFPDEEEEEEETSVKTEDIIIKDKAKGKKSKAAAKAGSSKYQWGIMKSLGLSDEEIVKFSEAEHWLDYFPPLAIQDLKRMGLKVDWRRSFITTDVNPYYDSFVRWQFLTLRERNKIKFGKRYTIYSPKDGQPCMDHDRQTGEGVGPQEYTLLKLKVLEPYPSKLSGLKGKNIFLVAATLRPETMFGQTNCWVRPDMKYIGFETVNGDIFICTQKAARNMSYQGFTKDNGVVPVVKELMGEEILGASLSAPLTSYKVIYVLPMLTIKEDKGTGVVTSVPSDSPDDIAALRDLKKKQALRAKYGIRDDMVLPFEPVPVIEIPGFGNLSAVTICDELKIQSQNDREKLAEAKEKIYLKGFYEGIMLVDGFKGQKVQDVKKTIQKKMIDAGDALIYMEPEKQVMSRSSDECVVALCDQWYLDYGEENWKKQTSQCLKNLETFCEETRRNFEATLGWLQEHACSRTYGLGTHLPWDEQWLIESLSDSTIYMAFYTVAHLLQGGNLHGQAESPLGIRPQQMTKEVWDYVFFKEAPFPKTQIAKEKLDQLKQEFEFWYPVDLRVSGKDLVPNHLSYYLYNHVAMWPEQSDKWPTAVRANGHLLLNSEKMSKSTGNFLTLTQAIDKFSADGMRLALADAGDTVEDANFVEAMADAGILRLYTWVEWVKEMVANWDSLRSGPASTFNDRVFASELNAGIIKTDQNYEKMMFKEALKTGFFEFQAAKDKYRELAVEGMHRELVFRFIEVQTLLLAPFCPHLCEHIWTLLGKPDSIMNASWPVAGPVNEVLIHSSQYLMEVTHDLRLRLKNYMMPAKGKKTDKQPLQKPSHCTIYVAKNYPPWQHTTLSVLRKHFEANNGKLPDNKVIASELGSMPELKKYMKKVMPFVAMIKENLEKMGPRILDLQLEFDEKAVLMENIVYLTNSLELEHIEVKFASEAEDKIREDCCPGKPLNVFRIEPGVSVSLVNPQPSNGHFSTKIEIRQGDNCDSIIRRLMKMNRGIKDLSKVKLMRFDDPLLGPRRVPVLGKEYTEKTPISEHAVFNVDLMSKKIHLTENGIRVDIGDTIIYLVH

Cl.NC[C@H]1OB2OCCOc3ccc(Br)c1c32 [Example 2, (S)-(3-bromo-7,8-dihydro-2H-1,6,9-trioxa-9a-borabenzo[cd]azulen-2-yl)methanamine hydrochloride]
4177: Selectivity Index (A/B) (HepG2 cells; [5])
< 0.1 µM: MIC [1, 3]
< 1 µM: MIC ([2]; for all of but 1 of the 40 clinical isolate strains tested)
292.4 µM: HepG2 cell 48 h Tox50 (A) (HepG2 cells)
0.08 µM: MIC [2, 7] | MIC [2, 8] | MIC [2, 9] | MIC [2, 10] | MIC [2, 11] | MIC [2, 12] | MIC [2, 13] | MIC [2, 14] | MIC [2, 15] | MIC [2, 16] | MIC [2, 17] | MIC [2, 18] | MIC [2, 19] | MIC [2, 20] | MIC [2, 21] | MIC [2, 22] | MIC [2, 23] | MIC [2, 24] | MIC [2, 25] | MIC [2, 26] | MIC [2, 27] | MIC [2, 28] | MIC [2, 29] | MIC [2, 30] | MIC [2, 31] | MIC [2, 32] | MIC [2, 33] | MIC [2, 34] | MIC [2, 35] | MIC [2, 36] | MIC [2, 37] | MIC [2, 38] | MIC [2, 39]
0.07 µM: MIC [1, 4]
64 µg/mL: MIC: E. coli K12 (E. coli K12) | MIC: E. coli K12 tolC::Tn10 (E. coli K12 tolC::Tn10) | MIC: A. baumannii ATCC 17978 (A. baumannii ATCC 17978) | MIC: P. aeruginosa PA01 (P. aeruginosa PA01)
0.04 µM: MIC ([2]; read-out: measured MIC (breakdown), for 1 strain of 40 clinical isolates (EXAMPLE 2))
0.16 µM: MIC [2, 6]

Cl.NC[C@H]1OB2OCCOc3ccc(Cl)c1c32 [Example 4, (S)-(3-chloro-7,8-dihydro-2H-1,6,9-trioxa-9a-borabenzo[cd]azulen-2-yl)methanamine hydrochloride]
0.148 µM: IC50 (Mtb LeuRS)
64 µg/mL: MIC: E. coli K12 (E. coli K12) | MIC: E. coli K12 tolC::Tn10 (E. coli K12 tolC::Tn10) | MIC: A. baumannii ATCC 17978 (A. baumannii ATCC 17978) | MIC: P. aeruginosa PA01 (P. aeruginosa PA01)
0.08 µM: MIC [1, 4] | MIC [2, 7] | MIC ([2]; strain 52, sensitive clinical isolate) | MIC [2, 8] | MIC [2, 9] | MIC [2, 10] | MIC [2, 11] | MIC [2, 12] | MIC [2, 13] | MIC [2, 14] | MIC [2, 15] | MIC [2, 16] | MIC [2, 17] | MIC [2, 18] | MIC [2, 19] | MIC [2, 20] | MIC ([2]; strain 250, sensitive clinical isolate) | MIC ([2]; strain 253, sensitive clinical isolate) | MIC [2, 21] | MIC ([2]; strain 256, sensitive clinical isolate) | MIC ([2]; strain 257, sensitive clinical isolate) | MIC [2, 22] | MIC [2, 23] | MIC ([2]; strain 267, sensitive clinical isolate) | MIC [2, 24] | MIC [2, 25] | MIC [2, 26] | MIC ([2]; strain 296, sensitive clinical isolate) | MIC ([2]; strain 311, sensitive clinical isolate) | MIC [2, 27] | MIC [2, 28] | MIC [2, 29] | MIC [2, 30] | MIC [2, 31] | MIC [2, 32] | MIC [2, 33] | MIC [2, 34] | MIC [2, 35] | MIC [2, 36] | MIC [2, 37] | MIC [2, 38] | MIC ([2]; strain 337, sensitive clinical isolate) | MIC [2, 39] | MIC ([2]; strain 361, sensitive clinical isolate) | MIC ([2]; strain 371, sensitive clinical isolate) | MIC ([2]; strain 374, sensitive clinical isolate) | MIC ([2]; strain 385, sensitive clinical isolate) | MIC ([2]; strain 391, sensitive clinical isolate) | MIC ([2]; strain 424, sensitive clinical isolate) | MIC ([2]; strain 440, sensitive clinical isolate) | MIC ([2]; strain 442, sensitive clinical isolate) | MIC ([2]; strain 460, sensitive clinical isolate) | MIC ([2]; strain 481, sensitive clinical isolate) | MIC ([2]; strain 716, sensitive clinical isolate) | MIC ([2]; strain 729, sensitive clinical isolate) | MIC ([2]; strain 730, sensitive clinical isolate) | MIC ([2]; strain 731, sensitive clinical isolate) | MIC ([2]; strain 733, sensitive clinical isolate) | MIC ([2]; strain 734, sensitive clinical isolate) | MIC ([2]; strain 736, sensitive clinical isolate) | MIC ([2]; strain 737, sensitive clinical isolate)
< 0.1 µM: MIC [1, 3]
>1000 µM: HepG2 cell 48 h Tox50 (A) (HepG2 cells)
0.31 µM: MIC ([2]; strain 161, sensitive clinical isolate)
0.16 µM: MIC [2, 6] | MIC ([2]; strain 274, sensitive clinical isolate) | MIC ([2]; strain 325, sensitive clinical isolate) | MIC ([2]; strain 705, sensitive clinical isolate)
≤ 0.2 µM: MIC ([2]; read-out: measured MIC (breakdown), for 1 strain of 40 clinical isolates (lowest MIC, EXAMPLE 4))
0.04 µM: MIC ([2]; strain 3, sensitive clinical isolate) | MIC ([2]; strain 356, sensitive clinical isolate) | MIC ([2]; strain 357, sensitive clinical isolate) | MIC ([2]; strain 362, sensitive clinical isolate) | MIC ([2]; strain 370, sensitive clinical isolate) | MIC ([2]; strain 457, sensitive clinical isolate)

C[C@]1(CO)COc2ccc(Br)c3c2B(OC3CN)O1 (stereo partly drawn) [Example 17, ((2S, 8S, or 2R, 8R)-2-(aminomethyl)-3-bromo-8-methyl-7,8-dihydro-2H-1,6,9-trioxa-9a-borabenzo[cd]azulen-8-yl)methanol]
>50: Selectivity Index (A/B) (HepG2 cells; [5])
1.97 µM: IC50 (Mtb LeuRS)
0.925 µM: MIC [1, 3]
>50 µM: HepG2 cell 48 h Tox50 (A) (HepG2 cells; human)

CCOc1ccc(Br)c2c1B(O)O[C@@H]2CN [Example C4-Br, reference compound]
67 µM: IC50 (Human cyto LeuRS)
32 µM: HepG2 cell 48 h Tox50 (A) (HepG2 cells)
320: Selectivity Index (A/B) (HepG2 cells)
0.1 µM: MIC [1, 40]
64 µg/mL: MIC: E. coli K12 (E. coli K12) | MIC: E. coli K12 tolC::Tn10 (E. coli K12 tolC::Tn10) | MIC: A. baumannii ATCC 17978 (A. baumannii ATCC 17978) | MIC: P. aeruginosa PA01 (P. aeruginosa PA01)

CCOc1ccc(Cl)c2c1B(O)O[C@@H]2CN [Example C6-Cl, reference compound]
36.3 µM: HepG2 cell 48 h Tox50 (A) (HepG2 cells)
363: Selectivity Index (A/B) (HepG2 cells)
64 µg/mL: MIC: E. coli K12 (E. coli K12) | MIC: E. coli K12 tolC::Tn10 (E. coli K12 tolC::Tn10) | MIC: A. baumannii ATCC 17978 (A. baumannii ATCC 17978) | MIC: P. aeruginosa PA01 (P. aeruginosa PA01)
0.1 µM: MIC [1, 40]
38.8 µM: IC50 (Human cyto LeuRS)

CC1(C)COc2c(Cl)ccc3c2B(O[C@@H]3CN)O1 [Example C13-Cl, reference compound]
5 µM: MIC [1, 3]
>50 µM: HepG2 cell 48 h Tox50 (A) (HepG2 cells; human)
>10: Selectivity Index (A/B) (HepG2 cells; [5])
2.16 µM: IC50 (Mtb LeuRS)
